{
  "source": "paper PMC11249637",
  "about": "“Interaction of the Atypical Tetracyclines Chelocardin and Amidochelocardin with Renal Drug Transporters” (ACS Pharmacology & Translational Science, 2024)",
  "target": "T1, mOat1 (Mus musculus, UniProt Q8VC69)",
  "T1 construct": "expressed in transfected cells; host or cells: HEK293",
  "T1 sequence (Q8VC69 1-545)": "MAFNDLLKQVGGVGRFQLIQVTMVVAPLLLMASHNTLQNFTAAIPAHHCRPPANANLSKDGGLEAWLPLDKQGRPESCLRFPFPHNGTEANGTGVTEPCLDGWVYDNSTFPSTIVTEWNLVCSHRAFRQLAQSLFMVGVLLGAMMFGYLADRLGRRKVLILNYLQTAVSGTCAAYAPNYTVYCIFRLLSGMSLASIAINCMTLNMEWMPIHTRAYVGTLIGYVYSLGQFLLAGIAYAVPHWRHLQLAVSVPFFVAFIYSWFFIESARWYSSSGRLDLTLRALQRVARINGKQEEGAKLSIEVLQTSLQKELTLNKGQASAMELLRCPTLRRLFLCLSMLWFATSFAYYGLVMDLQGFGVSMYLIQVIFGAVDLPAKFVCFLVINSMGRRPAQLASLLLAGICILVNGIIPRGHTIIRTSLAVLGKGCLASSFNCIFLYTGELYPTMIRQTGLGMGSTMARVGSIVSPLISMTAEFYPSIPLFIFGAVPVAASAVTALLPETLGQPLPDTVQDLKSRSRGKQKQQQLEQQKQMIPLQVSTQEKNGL",
  "assay": "Two-point inhibition of mOat1-mediated PAH uptake in transfected HEK293 cells",
  "type": "in vitro ADME",
  "settings": "PAH 10 μM, 1 min",
  "description": "Well-characterized mOct1-, mOct2-, mOat1-, mOat2-, mOat3-, mMate1-, hOAT1-, hOAT3-, hOAT4-, hMRP2-, mMdr1a- and mMdr1b-transfected HEK293 cells and the respective vector-transfected control HEK293 cells were used.[42],[51],[52] All HEK293 cells (transporter-transfected and vector-transfected) were cultured in DMEM (Sigma, high glucose, 10% FBS, 1% penicillin (10,000 Units/mL)/streptomycin (10 mg/mL)) at 37°C under 5% CO2 in humidified atmosphere. The cells were routinely checked for the absence of mycoplasma infection. For the preparation of HEK293 cell monolayers, 24-well plates were pretreated with a poly-D-lysine hydrobromide solution (0.1 mg/mL). Each well was coated with 0.5 mL of poly-D-lysine solution and incubated for at least 15 min. After complete removal of the solution, the plates were dried for 30 min. Cells (vector-transfected and transporter-transfected) treated with trypsin were immediately seeded into 24-well plates and cultured for 3 days before being used for transport experiments.\nFor the uptake assay, the growth medium was aspirated, and each well was rinsed three times with 0.5 mL of incubation buffer (HBSS supplemented with 20 mM HEPES, pH 7.4) and incubated for 20 min at 37 °C. Afterward, buffers were removed, and 200 μL of the incubation buffer containing a radiolabeled substrate and the nonlabeled CHD and CDCHD or reference inhibitor (Table S1), respectively, was added to each well and incubated at 37 °C for designated time intervals. […] Cells were solubilized with 0.6 mL of 1N NaOH overnight and transferred into scintillation vials. ^3H and ^14C contents were measured after the addition of 2.5 mL of scintillator in a liquid scintillation counter.\nThe cellular protein amount was determined in parallel for each cell line (vector- and transporter-transfected) from six wells in a different 24-well reference plate using the Bradford method. […]\nThe inhibitory effect (I(%)) was calculated according to the formula: [drawing 5] […]",
  "data": [
    {"smiles": "CC(=O)C1=C(O)[C@@H](N)[C@H]2Cc3c(c(O)c4c(O)c(C)ccc4c3C)C(=O)[C@@]2(O)C1=O", "note": "[CHD, chelocardin]", "values": [
      {"measurement": "inhibitory effect on mOat1", "setting": "1 and 10 μM tested", "result": "less than 50%"},
      {"measurement": "inhibitory effect on mOat1 (in words)", "setting": "1 and 10 μM", "result": "concentration-dependent inhibitory effects"},
      {"measurement": "inhibition at 10 µM", "setting": "HEK293, at 10 μM, read-out: inhibitory effect on mOat1", "result": "~50", "unit": "%"}
    ]}
  ]
}
